Measured values published in the supplement of paper PMC11061612.

Columns and labels:
Assay in all cases: combination Emax (second highest fraction inhibited in the dose matrix, 72 h); higher = more inhibition; extreme values may be limits of the assay
42-MG-BA (Glioblastoma) = tested on: 42-MG-BA (Glioblastoma)
How it was run: (§1)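 Cell lines in DMEM/F12 or RPMI with 10% FBS were plated in 1536-well plates, held 24 hours at 37°C, 5% CO2, then given two-drug dose matrices for 72 hours (DMSO typically 0.2%). Viability was read by CellTiter-Glo 2.0 luminescence and scaled as inhibition from 0 (vehicle wells) to 1 (blank wells). Combination Emax is the second-highest inhibition in the matrix; Bliss excess is observed combination effect minus expected EA + EB − EA·EB, EA and EB being single-agent effects.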

AGS (Gastric Carcinoma) = tested on: AGS (Gastric Carcinoma)
How it was run: as §1

[1] = tested on: B-CPAP (Thyroid Gland Carcinoma)
How it was run: as §1

[2] = tested on: CCRF-CEM (T-Lymphoblastic Leukemia)
How it was run: as §1

[3] = tested on: COLO-205 (Colorectal Carcinoma)
How it was run: as §1

[4] = tested on: CaR-1 (Colorectal Carcinoma)
How it was run: as §1

[5] = tested on: DEL (T-Cell Non-Hodgkin's Lymphoma)
How it was run: as §1

[6] = tested on: EC-GI-10 (Esophageal Squamous Cell Carcinoma)
How it was run: as §1

ES4 (Ewing's Sarcoma) = tested on: ES4 (Ewing's Sarcoma)
How it was run: as §1

[7] = tested on: HO-1-N-1 (Oral Cavity Carcinoma)
How it was run: as §1

[8] = tested on: HuP-T4 (Pancreatic Carcinoma)
How it was run: as §1

[9] = tested on: LU-135 (Small Cell Lung Carcinoma)
How it was run: as §1

NB10 (Neuroblastoma) = tested on: NB10 (Neuroblastoma)
How it was run: as §1

[10] = tested on: NCI-H2085 (Non-Small Cell Lung Carcinoma)
How it was run: as §1

[11] = tested on: NCI-H82 (Small Cell Lung Carcinoma)
How it was run: as §1

[12] = tested on: OVCA420 (Ovarian Carcinoma)
How it was run: as §1

[13] = tested on: RC-K8 (B-Cell Non-Hodgkin's Lymphoma)
How it was run: as §1

[14] = tested on: TCCSUP (Bladder Carcinoma)
How it was run: as §1

[15] = tested on: TE-15 (Esophageal Squamous Cell Carcinoma)
How it was run: as §1

[16] = tested on: UM-UC-3 (Bladder Carcinoma)
How it was run: as §1

Row | Structure (SMILES) | combination Emax (42-MG-BA (Glioblastoma)) | combination Emax (AGS (Gastric Carcinoma)) | combination Emax [1] | combination Emax [2] | combination Emax [3] | combination Emax [4] | combination Emax [5] | combination Emax [6] | combination Emax (ES4 (Ewing's Sarcoma)) | combination Emax [7] | combination Emax [8] | combination Emax [9] | combination Emax (NB10 (Neuroblastoma)) | combination Emax [10] | combination Emax [11] | combination Emax [12] | combination Emax [13] | combination Emax [14] | combination Emax [15] | combination Emax [16]
1 | CN(C)CCCOc1ccc(-c2ccc3ncc4c(c3c2)n(C2CCOCC2)c(=O)n4C)cn1 [AZD0156] + O=C(c1cc(Cc2n[nH]c(=O)c3ccccc23)ccc1F)N1CCN(C(=O)C2CC2)CC1 [Olaparib] (first compound max 3 µM, partner max 3 µM) | 0.402 | 0.392 | 0.34 | 0.46 | 0.365 | 0.207 | 0.78 | 0.436 | 0.658 | 0.346 | 0.289 | 0.426 | 0.593 | 0.224 | 0.382 | 0.23 | 0.318 | 0.279 | 0.253 | 0.289
2 | C=CCn1c(=O)c2cnc(Nc3ccc(N4CCN(C)CC4)cc3)nc2n1-c1cccc(C(C)(C)O)n1 [AZD1775] + C1CN(CCC1(C(=O)N[C@@H](CCO)C2=CC=C(C=C2)Cl)N)C3=NC=NC4=C3C=CN4 [Capivasertib] (first compound max 3 µM, partner max 3 µM) | 0.733 | 0.976 | 0.815 | 1 | 0.832 | 0.69 | 1 | 0.965 | 0.521 | 0.781 | 0.691 | 0.669 | 0.892 | 0.631 | 0.884 | 0.59 | 0.652 | 0.787 | 0.724 | 0.464
3 | CN(CCO)CC[C@H](CSc1ccccc1)Nc1ccc(S(=O)(=O)NC(=O)c2ccc(N3CCC([C@@H](O)c4ccccc4-c4ccc(Cl)cc4)CC3)cc2)cc1S(=O)(=O)C(F)(F)F [AZD4320] + C1CN(CCC1(C(=O)N[C@@H](CCO)C2=CC=C(C=C2)Cl)N)C3=NC=NC4=C3C=CN4 [Capivasertib] (first compound max 1 µM, 7x7, partner max 3 µM) | 0.594 | 0.692 | 0.284 | 1 | 0.831 | 0.21 | 0.192 | 0.204 | 0.564 | 0.216 | 0.0723 | 1 | 0.108 | 0.289 | 0.255 | 0.0769 | 0.552 | 0.168 | 0.141 | 0.196
4 | CN(CCO)CC[C@H](CSc1ccccc1)Nc1ccc(S(=O)(=O)NC(=O)c2ccc(N3CCC([C@@H](O)c4ccccc4-c4ccc(Cl)cc4)CC3)cc2)cc1S(=O)(=O)C(F)(F)F [AZD4320] + C=CCn1c(=O)c2cnc(Nc3ccc(N4CCN(C)CC4)cc3)nc2n1-c1cccc(C(C)(C)O)n1 [AZD1775] (first compound max 1 µM, partner max 1 µM) | 0.293 | 0.999 | 0.632 | 1 | 0.902 | 0.241 | 1 | 0.903 | 1 | 0.549 | 0.395 | 1 | 0.493 | 0.585 | 0.932 | 0.37 | 0.934 | 0.689 | 0.615 | 0.276
5 | CN(CCO)CC[C@H](CSc1ccccc1)Nc1ccc(S(=O)(=O)NC(=O)c2ccc(N3CCC([C@@H](O)c4ccccc4-c4ccc(Cl)cc4)CC3)cc2)cc1S(=O)(=O)C(F)(F)F [AZD4320] + CCN(CCO)CCCOc1ccc2c(Nc3cc(CC(=O)Nc4cccc(F)c4)[nH]n3)ncnc2c1 [AZD2811] (first compound max 1 µM, 7x7, partner max 1 µM) | 0.831 | 0.979 | 0.57 | 1 | 0.974 | 0.208 | 0.804 | 0.401 | 0.631 | 0.886 | 0.274 | 1 | 0.408 | 0.692 | 0.512 | 0.174 | 0.917 | 0.543 | 0.141 | 0.226
6 | COc1nnc2ccc(N3CCC(c4ccc(OCCN5CCN(C)C(=O)[C@H]5C)cc4)CC3)nn12 [AZD5153] + CN(CC[C@H](CSC1=CC=CC=C1)NC2=C(C=C(C=C2)S(=O)(=O)NC(=O)C3=CC=C(C=C3)N4CCC(CC4)[C@H](C5=CC=CC=C5C6=CC=C(C=C6)Cl)O)S(=O)(=O)C(F)(F)F)CCO [AZD4320] (first compound max 1 µM, 7x7, partner max 1 µM) | 0.868 | 0.918 | 0.925 |  | 0.95 |  | 0.844 | 0.275 | 0.795 |  | 0.479 | 1 |  |  |  | 0.813 | 1 | 0.297 |  | 
7 | Cc1c2c(nn1C)CSCc1cc(n(C)n1)CSc1cc(c3ccccc3c1)OCCCc1c(C(=O)O)n(C)c3c-2c(Cl)ccc13 [AZD5991] + C1CN(CCC1(C(=O)N[C@@H](CCO)C2=CC=C(C=C2)Cl)N)C3=NC=NC4=C3C=CN4 [Capivasertib] (first compound max 1 µM, 7x7, partner max 3 µM) | 1 | 0.335 |  | 0.637 | 0.313 | 0.223 | 1 | 0.775 | 0.19 | 0.944 | 0.351 | 0.323 | 0.194 | 0.262 | 0.976 | 0.212 | 0.161 | 0.25 | 0.36 | 0.216
8 | Cc1c2c(nn1C)CSCc1cc(n(C)n1)CSc1cc(c3ccccc3c1)OCCCc1c(C(=O)O)n(C)c3c-2c(Cl)ccc13 [AZD5991] + Cn1cnc2c(F)c(Nc3ccc(Br)cc3Cl)c(C(=O)NOCCO)cc21 [Selumetinib] (first compound max 1 µM, 7x7, partner max 3 µM) | 0.988 | 0.964 | 0.299 | 0.325 | 0.828 | 0.168 | 1 | 0.758 |  | 0.919 | 0.957 | 0.22 | 0.396 | 0.631 | 0.922 | 0.498 | 0.239 | 0.227 | 0.317 | 0.28
9 | CC(=O)c1c(C)c2cnc(Nc3ccc(N4CCNCC4)cn3)nc2n(C2CCCC2)c1=O [Palbociclib] + CN(CC[C@H](CSC1=CC=CC=C1)NC2=C(C=C(C=C2)S(=O)(=O)NC(=O)C3=CC=C(C=C3)N4CCC(CC4)[C@H](C5=CC=CC=C5C6=CC=C(C=C6)Cl)O)S(=O)(=O)C(F)(F)F)CCO [AZD4320] (first compound max 10 µM, 7x7, partner max 1 µM) | 0.511 | 0.823 | 0.59 |  | 0.868 |  | 0.916 | 0.493 | 0.485 |  | 0.208 | 1 |  |  |  | 0.21 | 0.838 | 0.364 |  | 
10 | COc1cc2c(cc1OCCCCCOc1cc3c(cc1OC)C(=O)N1C=C(C)C[C@H]1C=N3)N=C[C@@H]1CC(C)=CN1C2=O [SG3199] + O=C(c1cc(Cc2n[nH]c(=O)c3ccccc23)ccc1F)N1CCN(C(=O)C2CC2)CC1 [Olaparib] (first compound max 0.001 µM, 7x7, partner max 10 µM) | 0.247 | 0.248 | 0.217 | 0.257 | 0.0813 | 0.0995 | 0.597 | 0.198 | 0.566 | 0.103 | 0.0469 | 0.354 | 0.348 | 0.059 | 0.323 | 0.0795 |  | 0.162 | 0.166 | 0.132
11 | CCc1c2c(nc3ccc(O)cc13)-c1cc3c(c(=O)n1C2)COC(=O)[C@]3(O)CC [SN-38] + CN(C)CCCOc1ccc(-c2ccc3ncc4c(c3c2)n(C2CCOCC2)c(=O)n4C)cn1 [AZD0156] (first compound max 0.3 µM, 7x7, partner max 1 µM) | 1 | 0.814 | 0.867 | 1 | 0.509 | 0.876 | 1 | 0.776 | 0.947 | 1 | 0.96 | 0.728 | 0.829 | 0.221 | 0.824 | 0.171 |  | 0.743 | 0.819 | 0.978
12 | C[C@@H](c1ccc2nccn2c1)n1nnc2ncc(-c3cnn(C)c3)nc21 [Savolitinib] + CN(CC[C@H](CSC1=CC=CC=C1)NC2=C(C=C(C=C2)S(=O)(=O)NC(=O)C3=CC=C(C=C3)N4CCC(CC4)[C@H](C5=CC=CC=C5C6=CC=C(C=C6)Cl)O)S(=O)(=O)C(F)(F)F)CCO [AZD4320] (first compound max 1 µM, 7x7, partner max 1 µM) | 0.222 | 0.377 | 0.276 |  | 0.566 |  | 0.217 | 0.27 | 0.557 |  | 0.124 | 1 |  |  |  | 0.192 | 0.504 | 0.194 |  | 
